Test results reported in patent US7326732B2, “EP2 receptor agonists” (Pharmagene Laboratories Limited, priority 2004, dated 2008).
Like-named read-outs stand apart in the source and are kept apart here.

Assays:
human EP2 receptor = target: T1, human EP2 receptor (Homo sapiens, UniProt P43116); assay: Binding ability to human EP receptors ([3H]PGE2 displacement), EP2
T1 construct: expressed in transfected cells
In short: (§1)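 Membranes from cells stably expressing human EP2, EP3 or EP4 incubated to equilibrium with [3H]PGE2 and compound at 0.1 to 10 000 nM. Non-specific binding defined with 10 uM PGE2; bound label separated by vacuum filtration and quantified by scintillation counting.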

human EP4 receptor = target: T2, human EP4 receptor (Homo sapiens, UniProt P35408); assay: Binding ability to human EP receptors ([3H]PGE2 displacement), EP4; conditions: membranes expressing human EP4; [3H]PGE2 1 nM; Cheng-Prusoff; read-out: pKi (M) EP4 (converted)
T2 construct: expressed in transfected cells
T2 sequence (P35408 whole entry): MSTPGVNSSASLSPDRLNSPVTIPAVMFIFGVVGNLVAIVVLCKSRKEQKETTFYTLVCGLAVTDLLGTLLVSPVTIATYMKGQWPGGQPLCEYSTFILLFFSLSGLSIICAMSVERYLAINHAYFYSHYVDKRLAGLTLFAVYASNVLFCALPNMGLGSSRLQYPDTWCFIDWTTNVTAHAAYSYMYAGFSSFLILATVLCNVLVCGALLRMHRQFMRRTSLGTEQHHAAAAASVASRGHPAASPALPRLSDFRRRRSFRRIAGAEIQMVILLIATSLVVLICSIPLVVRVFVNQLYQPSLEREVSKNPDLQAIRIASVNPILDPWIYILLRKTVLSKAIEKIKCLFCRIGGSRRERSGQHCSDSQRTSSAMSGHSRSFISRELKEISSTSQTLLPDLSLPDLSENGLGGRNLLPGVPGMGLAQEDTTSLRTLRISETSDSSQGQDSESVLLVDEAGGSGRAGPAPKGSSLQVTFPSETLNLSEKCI
In short: as §1

human EP3 receptor = target: T3, human EP3 receptor (Homo sapiens, UniProt P43115); assay: Binding ability to human EP receptors ([3H]PGE2 displacement), EP3; conditions: membranes expressing human EP3; [3H]PGE2 2.5 nM; Cheng-Prusoff; read-out: pKi (M) EP3 (converted)
T3 construct: expressed in transfected cells
T3 sequence (P43115 1-390): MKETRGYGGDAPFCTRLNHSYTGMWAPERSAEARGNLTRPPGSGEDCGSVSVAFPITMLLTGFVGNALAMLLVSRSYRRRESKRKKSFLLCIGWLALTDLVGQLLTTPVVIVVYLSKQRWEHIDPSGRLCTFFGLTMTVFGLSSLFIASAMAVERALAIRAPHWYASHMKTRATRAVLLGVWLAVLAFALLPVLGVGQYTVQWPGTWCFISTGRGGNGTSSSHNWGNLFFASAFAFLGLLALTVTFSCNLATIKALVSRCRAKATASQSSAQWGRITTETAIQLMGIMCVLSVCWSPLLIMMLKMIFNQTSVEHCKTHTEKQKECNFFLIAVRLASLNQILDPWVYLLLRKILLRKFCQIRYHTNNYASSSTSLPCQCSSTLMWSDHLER
In short: as §1

[1] = target: T4, human EP2 prostanoid receptors (Homo sapiens, UniProt P43116); assay: Agonist activity at recombinant human EP2 prostanoid receptors (cAMP in HEK-293 clones); format: cell-based; conditions: for activity (EP2 part): functional classification at EP2
T4 construct: expressed in transfected cells; host or cells: HEK-293
T4 sequence (P43116 whole entry): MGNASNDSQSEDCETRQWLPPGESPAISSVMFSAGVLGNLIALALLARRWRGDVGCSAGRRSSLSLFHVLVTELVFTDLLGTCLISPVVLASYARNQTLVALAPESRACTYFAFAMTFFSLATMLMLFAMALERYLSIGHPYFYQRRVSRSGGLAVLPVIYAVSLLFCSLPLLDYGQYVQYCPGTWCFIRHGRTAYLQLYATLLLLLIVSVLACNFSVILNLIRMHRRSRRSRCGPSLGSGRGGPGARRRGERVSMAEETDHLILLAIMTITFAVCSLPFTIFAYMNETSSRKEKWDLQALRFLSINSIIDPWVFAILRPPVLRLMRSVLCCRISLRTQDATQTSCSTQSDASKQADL

[2] = membranes expressing human EP2, [3H]PGE2 3 nM, Cheng-Prusoff, read-out: pKi (M) EP2 (converted)
[3] = HEK-293 stably transfected with human EP2, cAMP accumulation, read-out: pEC50 EP2 (converted)

T1 sequence (P43116 whole entry): as above

Row | SMILES | Ki (human EP2 receptor; [2]) [M] | Ki (human EP4 receptor) [M] | Ki (human EP3 receptor) [M] | EC50 [1, 3] [µM] | activity (EP2 part) [1] | Ki (human EP2 receptor) [M] | EC50 [1] [µM]
1 | O=C(Nc1cccc(Cc2nnn[nH]2)c1)c1cccc(-c2ccc(Cl)cc2)n1 [Compound 95, 6-(4-Chloro-phenyl)-pyridine-2-carboxylic acid [3-(1H-tetrazol-5ylmethyl)-phenyl]-amide] | < 1e-07 | > 1e-05 | > 1e-05 | < 0.1 | EP2 Agonist |  | 
2 | O=C(Nc1ccc2sc(C(=O)O)cc2c1)c1ccc(-c2ccccc2)o1 [Compound 97, 5-[(5-Phenyl-furan-2-carbonyl)-amino]-benzo[b]thiophene-2-carboxylic acid] | < 1e-06 | > 1e-05 | > 1e-05 | < 1 | EP2 Agonist |  | 
3 | CC/C(=C\c1cccc(NC(=O)c2ccc(-c3ccccc3)o2)c1)C(=O)O [Compound 98, 2-{3-[(5-Phenyl-furan-2-carbonyl)-amino]-benzylidene}-butyric acid] | < 1e-06 | > 1e-05 | > 1e-05 | < 1 | EP2 Agonist |  | 
4 | O=C(O)/C=C/c1cccc(NC(=O)c2ccc(-c3cccc(F)c3)o2)c1 [Compound 100, 3-(3-{[5-(3-Fluoro-phenyl)-furan-2-carbonyl]-amino}-phenyl)-acrylic acid] | < 1e-07 | < 1e-05 | > 1e-05 | < 0.1 | EP2 Agonist |  | 
5 | O=C(O)/C=C/c1cccc(NC(=O)c2ccc(-c3ccc4c(c3)OCO4)o2)c1 [Compound 101, 3-{3-[(5-Benzo[1,3]dioxol-5-yl-furan-2-carbonyl)-amino]-phenyl}-acrylic acid] | < 1e-07 | > 1e-05 | > 1e-05 | < 0.1 | EP2 Agonist |  | 
6 | O=C(O)/C=C/c1cccc(NC(=O)c2cc(-c3ccccc3)ccc2F)c1 [Compound 107, 3-{3-[(4-Fluoro-biphenyl-3-carbonyl)-amino]-phenyl}-acrylic acid] | < 1e-07 | > 1e-05 | > 1e-05 | < 0.1 | EP2 Agonist |  | 
7 | O=C(O)/C=C/c1cccc(NC(=O)c2cc(-c3cccc(F)c3)ccc2F)c1 [Compound 108, 3-{3-[(4,3′-Difluoro-biphenyl-3-carbonyl)-amino]-phenyl}-acrylic acid] | < 1e-07 | > 1e-05 | > 1e-05 | < 0.1 | EP2 Agonist |  | 
8 | O=C(O)/C=C/c1cccc(NC(=O)c2cccc(-c3cccc(F)c3)n2)c1 [Compound 110, 3-(3-{[6-(3-Fluoro-phenyl)-pyridine-2-carbonyl]-amino}-phenyl)-acrylic acid] | < 1e-07 | > 1e-05 | > 1e-05 | < 0.1 | EP2 Agonist |  | 
9 | O=C(O)Cc1cccc(NC(=O)c2cc(-c3cccc(F)c3)ccc2F)c1 [Compound 111] | < 1e-07 | > 1e-05 | > 1e-05 | < 0.1 | EP2 Agonist |  | 
10 | O=C(O)/C=C/c1cccc(NC(=O)c2cc(-c3ccc(F)cc3)ccc2F)c1 [Compound 112, 3-{3-[(4,4′-Difluoro-biphenyl-3-carbonyl)-amino]-phenyl}-acrylic acid] | < 1e-07 | > 1e-05 | > 1e-05 | < 0.1 | EP2 Agonist |  | 
11 | O=C(O)Cc1cccc(NC(=O)c2cccc(-c3cccc(F)c3)n2)c1 [Compound 113, (3-{[6-(3-Fluoro-phenyl)-pyridine-2-carbonyl]-amino}-phenyl)-acetic acid] | < 1e-07 | > 1e-05 | > 1e-05 | < 0.1 | EP2 Agonist |  | 
12 | O=C(O)/C=C/c1cccc(NC(=O)c2csc(-c3ccccc3)n2)c1 [Compound 115, 3-{3-[(2-Phenyl-thiazole-4-carbonyl)-amino]-phenyl}-acrylic acid] | < 1e-07 | > 1e-05 | > 1e-05 | < 0.1 | EP2 Agonist |  | 
13 | O=C(O)/C=C/c1cccc(NC(=O)c2csc(-c3cccc(F)c3)n2)c1 [Compound 116, 3-(3-{[2-(3-Fluoro-phenyl)-thiazole-4-carbonyl]-amino}-phenyl)-acrylic acid] | < 1e-07 | > 1e-05 | > 1e-05 | < 0.1 | EP2 Agonist |  | 
14 | O=C(O)Cc1cccc(C(=O)Nc2cccc(-c3ccccc3)c2)c1 [Compound 117, [3-(Biphenyl-3-ylcarbamoyl)-phenyl]-acetic acid] | < 1e-06 | > 1e-05 | > 1e-05 | < 10 | EP2 Agonist |  | 
15 | Cn1c(C(=O)O)cc2cc(NC(=O)c3ccc(-c4ccccc4)o3)ccc21 [Compound 118, 1-Methyl-5-[(5-phenyl-furan-2-carbonyl)-amino]-1H-indole-2-carboxylic acid] | < 1e-06 | > 1e-05 | > 1e-05 | < 0.1 | EP2 Agonist |  | 
16 | O=C(O)/C=C/c1cccc(CC(=O)c2ccc(-c3ccccc3)o2)c1 [Compound 120, 3-{3-[2-Oxo-2-(5-phenyl-furan-2-yl)-ethyl]-phenyl}-acrylic acid] | < 1e-05 | > 1e-05 | > 1e-05 | < 1 | EP2 Agonist |  | 
17 | O=C(O)/C=C/c1cccc(OCc2csc(-c3ccccc3)n2)c1 [Compound 121, 3-[3-(2-Phenyl-thiazol-4-ylmethoxy)-phenyl]-acrylic acid] | < 1e-06 | > 1e-05 | > 1e-05 | < 1 | EP2 Agonist |  | 
18 | O=C(O)Cc1cccc(NC(=O)c2ccc(-c3cc(F)cc(F)c3)o2)c1 [Compound 127, (3-{[5-(3,5-Difluoro-phenyl)-furan-2-carbonyl]-amino}-phenyl)-acetic acid] | < 1e-07 | > 1e-05 | > 1e-05 | < 0.1 | EP2 Agonist |  | 

Second part, the compound after the results:

Row | Ki (human EP2 receptor; [2]) [M] | Ki (human EP4 receptor) [M] | Ki (human EP3 receptor) [M] | EC50 [1, 3] [µM] | activity (EP2 part) [1] | Ki (human EP2 receptor) [M] | EC50 [1] [µM] | SMILES
19 | < 1e-06 | > 1e-05 | > 1e-05 | < 0.1 | EP2 Agonist |  |  | O=C(O)Cc1cccc(NC(=O)c2ccc(-c3cccc(F)c3)o2)c1 [Compound 128, (3-{[5-(3-fluoro-phenyl)-furan-2-carbonyl]-amino}-phenyl)-acetic acid]
20 | < 1e-07 | > 1e-05 | > 1e-05 | < 0.1 | EP2 Agonist |  |  | O=C(O)/C=C/c1cccc(NC(=O)c2cccc(-c3cc(Cl)cc(Cl)c3)n2)c1 [Compound 132, 3-(3-{[6-(3,5-Dichloro-phenyl)-pyridine-2-carbonyl]-amino}-phenyl)-acrylic acid]
21 | < 1e-07 | > 1e-05 | > 1e-05 | < 0.1 | EP2 Agonist |  |  | O=C(O)CCc1cccc(NC(=O)c2cccc(-c3cc(Cl)cc(Cl)c3)n2)c1 [Compound 134, 3-(3-{[6-(3,5-Dichloro-phenyl)-pyridine-2-carbonyl]-amino}-phenyl)-propionic acid]
22 | < 1e-06 | > 1e-05 | > 1e-05 | < 1 | EP2 Agonist |  |  | O=C(Nc1ccc2[nH]c(C(=O)O)cc2c1)c1cccc(-c2cc(Cl)cc(Cl)c2)n1 [Compound 135, 5-{[6-(3,5-Dichloro-phenyl)-pyridine-2-carbonyl]-amino}-1H-indole-2-carboxylic acid]
23 |  | < 1e-06 | > 1e-05 |  | EP2 Agonist | < 1e-07 | < 0.1 | O=C(O)/C=C/c1cccc(NC(=O)c2cccc(-c3cccc(Cl)c3)n2)c1 [Compound 137, 3-(3-{[6-(3-Chloro-phenyl)-pyridine-2-carbonyl]-amino}-phenyl)-acrylic acid]
24 | < 1e-07 | > 1e-05 | > 1e-05 | < 0.1 | EP2 Agonist |  |  | O=C(O)COc1cccc(NC(=O)c2cc(-c3cccc(Cl)c3)ccc2F)c1 [Compound 140, {3-[(3′-Chloro-4-fluoro-biphenyl-3-carbonyl)-amino]-phenoxy}-acetic acid]
25 | < 1e-07 | > 1e-05 | > 1e-05 | < 0.1 | EP2 Agonist |  |  | O=C(O)/C=C/c1cccc(NC(=O)c2cc(-c3cccc(Cl)c3)ccc2F)c1 [Compound 142, 3-{3-[(3′-Chloro-4-fluoro-biphenyl-3-carbonyl)-amino]-phenyl}-acrylic acid]
26 | < 1e-07 | > 1e-05 | > 1e-05 | < 0.1 | EP2 Agonist |  |  | O=C(O)COc1cccc(NC(=O)c2cc(-c3cc(Cl)cc(Cl)c3)ccc2F)c1 [Compound 143, {3-[(3′,5′-Dichloro-4-fluoro-biphenyl-3-carbonyl)-amino]-phenoxy}-acetic acid]
